pIC50: −log10 of the molar value. Structures can show the parent of a compound that is named as a salt.

The first experiment addresses T1, tankyrase 1 (Homo sapiens, UniProt O95271).
T1 construct: purchased Trevigen 4700-096-K
T1 sequence (O95271 1-1327): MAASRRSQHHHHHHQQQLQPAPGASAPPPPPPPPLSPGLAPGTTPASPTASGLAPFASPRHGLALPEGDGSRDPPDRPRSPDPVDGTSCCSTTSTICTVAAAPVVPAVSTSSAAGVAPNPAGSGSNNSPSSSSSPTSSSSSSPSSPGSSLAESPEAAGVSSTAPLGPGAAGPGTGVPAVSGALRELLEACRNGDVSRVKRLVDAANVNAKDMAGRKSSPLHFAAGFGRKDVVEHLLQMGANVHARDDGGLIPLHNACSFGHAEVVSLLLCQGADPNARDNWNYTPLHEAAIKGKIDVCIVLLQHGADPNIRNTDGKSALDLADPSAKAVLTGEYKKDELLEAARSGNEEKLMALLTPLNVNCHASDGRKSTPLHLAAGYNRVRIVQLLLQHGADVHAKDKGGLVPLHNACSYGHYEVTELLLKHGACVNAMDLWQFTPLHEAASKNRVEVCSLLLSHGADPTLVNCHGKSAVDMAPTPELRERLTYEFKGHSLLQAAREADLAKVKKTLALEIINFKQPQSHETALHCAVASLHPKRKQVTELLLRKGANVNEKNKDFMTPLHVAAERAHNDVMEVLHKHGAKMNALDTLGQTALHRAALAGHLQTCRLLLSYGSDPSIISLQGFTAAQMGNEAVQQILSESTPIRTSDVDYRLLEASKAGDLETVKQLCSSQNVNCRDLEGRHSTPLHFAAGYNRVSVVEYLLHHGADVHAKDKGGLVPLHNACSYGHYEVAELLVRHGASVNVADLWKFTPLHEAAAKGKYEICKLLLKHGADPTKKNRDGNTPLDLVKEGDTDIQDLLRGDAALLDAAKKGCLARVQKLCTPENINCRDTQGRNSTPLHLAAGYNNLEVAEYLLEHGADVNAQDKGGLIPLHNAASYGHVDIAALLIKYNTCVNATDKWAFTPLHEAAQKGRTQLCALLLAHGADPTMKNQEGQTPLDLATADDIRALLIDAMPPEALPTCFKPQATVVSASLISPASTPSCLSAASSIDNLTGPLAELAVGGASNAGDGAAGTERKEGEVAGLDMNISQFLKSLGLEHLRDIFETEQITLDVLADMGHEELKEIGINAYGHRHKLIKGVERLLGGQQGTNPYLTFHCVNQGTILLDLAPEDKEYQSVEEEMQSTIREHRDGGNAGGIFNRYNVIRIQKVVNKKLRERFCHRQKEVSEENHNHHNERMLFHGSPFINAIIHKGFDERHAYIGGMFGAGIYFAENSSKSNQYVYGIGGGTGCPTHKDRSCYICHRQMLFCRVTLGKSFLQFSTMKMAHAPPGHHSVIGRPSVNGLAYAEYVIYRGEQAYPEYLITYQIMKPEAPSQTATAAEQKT
The experiment in a line: Analysis of activity of tankyrase 1 (Trevigen kit, ELISA absorbance at 450 nm). In kind it is biochemical.
Details: not given
On the procedure:
Activities of novel compounds synthesized according to Examples 1 to 48 against tankyrase 1 were analyzed using a Trevigen kit (Cat. No. 4700-096-K). Poly PAR histone protein-coated 96-well plate, anti-PAR monoclonal antibody and goat anti-mouse IgG-HRP were used for measurement of absorbance by ELISA method. Specifically, 20× I-PAR assay buffer was diluted to 1× by adding water, and 50 μL of the diluted buffer was added to each well of the 96-well plate followed by reacting at rt for 30 min. Then, the supernatant was completely removed from each well and 10 μL of 1× I-PAR assay buffer and 15 μL of assay substrate were added to each well along with 1 μL of a 50× solution of inhibitors to be tested, which were the compounds obtained in the Examples 1 to 48. 10 m Units/μL of tankyrase 1 enzyme was diluted 50-fold with 1× I-PAR assay buffer and 25 μL of the diluted enzyme was added to each well and reacted while stirring at rt for 30 min. One without any compound of the present invention was used as a positive control and another containing 1× I-PAR assay buffer with the same volume instead of tankyrase 1 enzyme was used as a negative control. Upon completion of the reaction, 200 μL of PBSX, which was prepared by adding 0.1% triton X-100 to PBS, was added and removed and this washing process was repeated twice. Washing was repeated twice more using PBS in the same manner. 5× antibody diluent was diluted with distilled water to 1× concentration, 50 μL of the diluted goat anti-mouse IgG-HRP to 1/2000 was added to each well and reacted while stirring at rt for 30 min. Washes were carried out twice using PBSX and PBS, respectively. After addition of 50 μL of TACS-sapphire to each well of the plate, the plate was blocked from light to react for 10 min to 15 min and the color of the reaction solution turned blue. To stop the reaction, 50 μL of 0.2N HCl was added to turn the solution yellow. Finally, the absorbance of the resulting solution was measured at 450 nm.
Take `Cc1ncc2c(=O)[nH]c(N3CCN(c4ccccc4F)CC3)nn12` [compound 1, 2-(4-(2-Fluorophenyl)piperazin-1-yl)-7-methylimidazo[1,5-f][1,2,4]triazin-4(3H)-one]: the pIC50 is 6.96.

`COCCOc1cc(F)c(N2CCN(c3nn4c(C)ncc4c(=O)[nH]3)CC2)c(F)c1` [compound 2, 2-(4-(2,6-Difluoro-4-(2-methoxyethoxy)phenyl)piperazin-1-yl)-7-methylimidazo[1,5-f][1,2,4]triazin-4(3H)-one] had a pIC50 of 7.50.

Regarding `Cc1ncc2c(=O)[nH]c(N3CCN(c4c(F)cc(OC5COC5)cc4F)CC3)nn12` [compound 12, 2-(4-(2,6-Difluoro-4-(oxetan-3-yloxy)phenyl)piperazin-1-yl)-7-methylimidazo[1,5-f][1,2,4]triazin-4(3H)-one], the pIC50 was 7.02.

`Cc1ncc2c(=O)[nH]c(N3CCN(c4c(F)cccc4F)CC3)nn12` [compound 15, 2-(4-(2,6-Difluorophenyl)piperazin-1-yl)-7-methylimidazo[1,5-f][1,2,4]triazin-4(3H)-one] showed a pIC50 of 7.75.

Still in this experiment, the particulars now being: Trevigen kit Cat. No. 4700-096-K; reaction at rt for 30 min; read-out: TNKS1 (IC50).
As to `Cc1ncc2c(=O)[nH]c(N3CCN(c4c(F)cc(OCc5ccccc5)cc4F)CC3)nn12` [compound 3, 2-(4-(4-(Benzyloxy)-2,6-difluorophenyl)piperazin-1-yl)-7-methylimidazo[1,5-f][1,2,4]triazin-4(3H)-one], the pIC50 was 6.31.

`Cc1ncc2c(=O)[nH]c(N3CCN(c4c(F)cc(OCCN5CCOCC5)cc4F)CC3)nn12` [compound 4, 2-(4-(2,6-Difluoro-4-(2-morpholinoethoxy)phenyl)piperazin-1-yl)-7-methylimidazo[1,5-f][1,2,4]triazin-4(3H)-one]: the pIC50 is 7.49.

With `Cc1ncc2c(=O)[nH]c(N3CCN(c4c(F)cc(OCCN5CCCCC5)cc4F)CC3)nn12` [compound 5, 2-(4-(2,6-Difluoro-4-(2-(piperidin-1-yl)ethoxy)phenyl)piperazin-1-yl)-7-methylimidazo[1,5-f][1,2,4]triazin-4(3H)-one], the pIC50 was 7.60.

For the molecule `Cc1ncc2c(=O)[nH]c(N3CCN(c4c(F)cc(OCCN(C)C)cc4F)CC3)nn12` [compound 6, 2-(4-(4-(2-(Dimethylamino)ethoxy)-2,6-difluorophenyl)piperazin-1-yl)-7-methylimidazo[1,5-f][1,2,4]triazin-4(3H)-one], the negative logarithm of the IC50 (pIC50) is 7.71.

For the molecule `Cc1ncc2c(=O)[nH]c(N3CCN(c4c(F)cc(OCCO)cc4F)CC3)nn12` [compound 7, 2-(4-(2,6-Difluoro-4-(2-hydroxyethoxy)phenyl)piperazin-1-yl)-7-methylimidazo[1,5-f][1,2,4]triazin-4(3H)-one], the pIC50 was 7.41.

For the molecule `Cc1ncc2c(=O)[nH]c(N3CCN(c4c(F)cc(OCCOC(=O)[C@H](C)N)cc4F)CC3)nn12` [compound 8, (S)-2-(3,5-Difluoro-4-(4-(7-methyl-4-oxo-3,4-dihydroimidazo[1,5-f][1,2,4]triazin-2-yl)piperazin-1-yl)phenoxy)ethyl 2-aminopropionate hydrochloride], the pIC50 was 7.36.

Regarding `Cc1ncc2c(=O)[nH]c(N3CCN(c4c(F)cc(OCC(O)CO)cc4F)CC3)nn12` (stereo not shown) [compound 9, 2-(4-(4-(2,3-Dihydroxypropoxy)-2,6-difluorophenyl)piperazin-1-yl)-7-methylimidazo[1,5-f][1,2,4]triazin-4(3H)-one], the negative logarithm of the IC50 (pIC50) is 7.10.

For `Cc1ncc2c(=O)[nH]c(N3CCN(c4c(F)cc(CN5CCOCC5)cc4F)CC3)nn12` [compound 10, 2-(4-(2,6-Difluoro-4-(morpholinomethyl)phenyl)piperazin-1-yl)-7-methylimidazo[1,5-f][1,2,4]triazin-4(3H)-one], the negative-log IC50 (pIC50) was 7.31.

For `Cc1ncc2c(=O)[nH]c(N3CCN(c4c(F)cc(CN5CCN(C)CC5)cc4F)CC3)nn12` [compound 11, 2-(4-(2,6-Difluoro-4-((4-methylpiperazin-1-yl)methyl)phenyl)piperazin-1-yl)-7-methylimidazo[1,5-f][1,2,4]triazin-4(3H)-one], the pIC50 was 7.36.

With `Cc1ncc2c(=O)[nH]c(N3CCN(c4c(F)cc(C(C)O)cc4F)CC3)nn12` (stereo not shown) [compound 13, 2-(4-(2,6-Difluoro-4-(1-hydroxyethyl)phenyl)piperazin-1-yl)-7-methylimidazo[1,5-f][1,2,4]triazin-4(3H)-one], the pIC50 is 7.34.

Regarding `COC(C)c1cc(F)c(N2CCN(c3nn4c(C)ncc4c(=O)[nH]3)CC2)c(F)c1` (stereo not shown) [compound 14, 2-(4-(2,6-Difluoro-4-(1-methoxyethyl)phenyl)piperazin-1-yl)-7-methylimidazo[1,5-f][1,2,4]triazin-4(3H)-one], the negative-log IC50 (pIC50) was 7.16.

Take `COCCOc1cc(F)c(C2(O)CCN(c3nn4c(C)ncc4c(=O)[nH]3)CC2)c(F)c1` [compound 17, 2-(4-(2,6-Difluoro-4-(2-methoxyethoxy)phenyl)-4-hydroxypiperidin-1-yl)-7-methylimidazo[5,1-f][1,2,4]triazin-4(3H)-one]: the pIC50 is 7.17.

`COCCN(C)Cc1cc(F)c(N2CCN(c3nn4c(C)ncc4c(=O)[nH]3)CC2)c(F)c1` [compound 19, 2-(4-(2,6-Difluoro-4-(((2-methoxyethyl)(methyl)amino)methyl)phenyl)piperazin-1-yl)-7-methylimidazo[1,5-f][1,2,4]triazin-4(3H)-one]: the pIC50 is 6.99.

Take `Cc1ncc2c(=O)[nH]c(N3CCN(c4c(F)cc(OCCN5CCCC5)cc4F)CC3)nn12` [compound 24, 2-(4-(2,6-Difluoro-4-(2-(pyrrolidin-1-yl)ethoxy)phenyl)piperazin-1-yl)-7-methylimidazo[1,5-f][1,2,4]triazin-4(3H)-one]: the pIC50 is 7.03.

`Cc1ncc2c(=O)[nH]c(N3CCN(c4c(F)cc(OCCN5CCN(C)CC5)cc4F)CC3)nn12` [compound 25, 2-(4-(2,6-Difluoro-4-(2-(4-methylpiperazin-1-yl)ethoxy)phenyl)piperazin-1-yl)-7-methylimidazo[1,5-f][1,2,4]triazin-4(3H)-one]: the negative logarithm of the IC50 (pIC50) is 7.16.

With `Cc1ncc2c(=O)[nH]c(N3CCN(c4c(F)cc(OCC(=O)N5CCCCC5)cc4F)CC3)nn12` [compound 28, 2-(4-(2,6-Difluoro-4-(2-oxo-2-(piperidin-1-yl)ethoxy)phenyl)piperazin-1-yl)-7-methylimidazo[1,5-f][1,2,4]triazin-4(3H)-one], the pIC50 was 7.20.

As for `Cc1ncc2c(=O)[nH]c(N3CCN(c4c(F)cc(OCC(=O)N5CCCC5)cc4F)CC3)nn12` [compound 29, 2-(4-(2,6-Difluoro-4-(2-oxo-2-(pyrrolidin-1-yl)ethoxy)phenyl)piperazin-1-yl)-7-methylimidazo[1,5-f][1,2,4]triazin-4(3H)-one], the pIC50 was 7.07.

As for `Cc1ncc2c(=O)[nH]c(N3CCN(c4c(F)cc(OCCN=[N+]=[N-])cc4F)CC3)nn12` [compound 31, 2-(4-(4-(2-Azidoethoxy)-2,6-difluorophenyl)piperazin-1-yl)-7-methylimidazo[1,5-f][1,2,4]triazin-4(3H)-one], the pIC50 was 6.77.

The values are drawn from US10179785B2, “Imidazotriazinone or imidazopyrazinone derivatives, and use thereof” (ST PHARM CO., LTD., priority 2014, dated 2019).
